Our source for the melting point values is a melting point compilation (Tetko et al.; mined from patent text by program, amines drawn as free bases though some values may be those of a salt).

A word on the melting point: it is the temperature, or range, at which the solid turns liquid. In turn, `CN(C)C(=O)c1cc(O)c2nc(C(F)(F)F)n(C)c2c1` yielded a melting point of 243 to 244 °C. `CCOC(=O)NNC1=Nc2sc(CC)cc2C(c2ccccc2Cl)=NC1` registered a melting point of 207 °C. Compound `O=C(O)c1cccc2ccc(-c3ccc([N+](=O)[O-])cc3)nc12` registered a melting point of 272 to 274 °C. For `Cc1cc2c(cc1NC(=O)c1cccc(I)c1C(=O)NC(C)C)OC(F)(F)C2(O)C(F)(F)F` (stereo unspecified), the melting point is 144 to 146 °C. Regarding `Nc1cc(-n2cc(C(=O)O)c(=O)c3cc(F)c(N4CC(N)C4)nc32)c(F)cc1F`, the melting point is 168 to 170 °C.

`Cc1cccc(-c2[nH]c(C(C)C)nc2-c2ccc(F)c(-c3ccc(S(C)(=O)=O)cn3)c2)n1` gave a melting point of 105 to 108 °C. Regarding `CCCCc1n[nH]c(C(F)(F)CCC)n1`, the melting point lay in the range of 92 to 93 °C. In turn, `N#Cc1cc(O)cc2nc(-c3ccc(O)cc3)oc12` yielded a melting point of 180 to 183 °C. For the compound `Cc1sc(C)c(NC(=S)Nc2c(Cl)cccc2Cl)c1N`, the melting point fell in the range of 143 to 148 °C. On to `CC(C)c1nc(-c2ccccn2)ncc1-c1ccc(Cl)cc1`, for which the melting point came to 145 °C.

In turn, `Cc1cc2nc(Cl)c(Cl)nc2c([N+](=O)[O-])c1Cl` yielded a melting point of 121 to 122 °C. The figure for `CC(C)(C)N(NC(=O)c1ccccn1)C(=O)c1ccc(Cl)c(Cl)c1` is 175 to 178 °C; for `CC(C)c1cc(C(=O)O)c(N)c(C(C)C)c1` it is 114 to 116 °C. The figure for `CC(=O)Nc1cc2c(cc1[N+](=O)[O-])OC(C)(C)[C@@H](Br)[C@@H]2O` (relative stereo) is 198 to 200 °C. `COCc1cccc2oc(C(=O)O)c(C)c12` gave a melting point of 164 to 166 °C. Compound `COc1cc2c(cc1OCc1ccccc1)C(C#N)(Sc1ccc(Cl)cc1)C2` (stereo unspecified) gave a melting point of 114 to 115 °C. `CC(C)c1ccccc1-n1c(=O)[nH]c2c(C(N)=O)nc(-c3cccc(O)c3)nc21`: the melting point was in the range of 322 to 324 °C. In turn, `CC(=NNC(=O)c1cccc([N+](=O)[O-])c1O)c1ccccc1` showed a melting point of 163 to 168 °C. The figure for `CCCc1ccc(NCc2ccc(N(C)C)cc2)cc1` is 74 to 76 °C; for `CC(CC#CC(C)(C)O[Si](C)(C)C(C)(C)C)C1=CCC2C3=CC=C4CC(O[Si](C)(C)C(C)(C)C(C)C)CCC4(C)C3CCC12C` (stereo unspecified) it is 62 to 66 °C. In the case of `CCOC(=O)c1nsc(-c2ccc(C)cc2)n1`, the melting point lay within 65 to 66.5 °C. Next, `O=C(NCCc1ccc(OCc2ccccc2)c(OCc2ccccc2)c1CCc1cccc(OCc2ccccc2)c1)C(F)(F)F`: 142 to 144 °C; `Cc1cc(N(C)Cc2oc(-c3ccc(C(F)(F)F)cc3)nc2C)cc(C)c1OCC(=O)O`: 122 to 123 °C; `COc1ccc(-n2cc(/C=C(\C#N)C(=O)NS(C)(=O)=O)c(-c3ccc(Cl)c(F)c3)n2)cc1Cl`: 280 to 282 °C.

For the compound `Clc1cccc(N2CCC3CCc4cnccc4C3=N2)c1` (stereo unspecified), the melting point lay within 152 to 155 °C.

Compound `COc1ccccc1OCCCc1oc(-n2cnc(-c3ccccc3)c2-c2ccccc2)nc1-c1ccc(Cl)cc1` yielded a melting point of 118 to 119 °C. With `CCOc1cc(NC(=O)NS(=O)(=O)c2ccc(C)cc2)ccn1`, the melting point was 146 to 148 °C.

For `COc1cc2ncnc(N3CCC(CN4C=CC=NS4(=O)=O)CC3)c2cc1OC`, the melting point fell in the range of 173 to 174 °C.

Turning to `CC1(C)CN=C(Cc2ccc(Cl)cc2)NC1`, the melting point fell in the range of 130 to 132 °C.

Turning to `CN(C)C(=O)Nc1ccc2c(c1)C(=O)NC(=O)C2(C)C`, the melting point is 256 to 258 °C. `CC(=O)Nc1ccc(Sc2cccnc2)cc1` showed a melting point of 138 to 140 °C. For the compound `CC1=C(C(=O)OC2CCCC2)C(c2c(F)cccc2Cl)C(C(=O)n2ccnc2)=C(C)N1` (stereo unspecified), the melting point was 150 °C. `CN1CCN(c2ccc(Nc3cc(-c4cccc(-n5ncc6cc(C(C)(C)C)cc(F)c6c5=O)c4CO)nn(C)c3=O)nc2)CC1`: the melting point fell in the range of 260 to 264 °C. Take `Cc1cc(=O)c2ccccc2o1`: the melting point is 71 °C. Consider `Cc1nccn1-c1cccc(C2=CC(=O)OC(C)(C)O2)c1`, for which the melting point was 122 °C. Consider `C[C@@H]1c2cccn2-c2ccc(F)cc2N1C(=O)c1ccc(O)cc1`, for which the melting point was 125 to 129 °C.

Turning to `CC(C)(C(O)c1ccc2c(c1)OCO2)[N+](=O)[O-]` (stereo unspecified), the melting point lay within 88 to 91 °C. For `Cc1ccccc1C(=O)c1cc2c(cc1O)CCC2`, the melting point was 61 to 62 °C.

For the compound `CCCCOCCOc1ccc(-c2ccc3c(c2)C=C(C(=O)Nc2ccc([C@@H](O)c4ccccn4)cc2)CCN3C=O)cc1`, the melting point fell in the range of 110 to 112 °C. On to `CCC(C(=O)O)N(C(=O)c1cn(-c2ccc(OC)cc2)nc1C)c1ccc(OCC(C)(C)C)c(C#N)c1` (stereo unspecified), for which the melting point is 113 to 114 °C. `O=[N+]([O-])c1cc(CO)ccc1Sc1nccnc1Cl` yielded a melting point of 110 to 113 °C. Turning to `CCN1c2ncc(COc3cccc(C(=O)O)c3)cc2C(=O)N(C)c2ccc(Cl)nc21`, the melting point lay within 181 to 182 °C.

As for `Nn1ccnc1-c1ccc(Cl)cc1`, the melting point is 210 °C. `CCOC(=O)c1cc(C)c(Cl)nc1C(=O)OCC`: the melting point was 84 to 86 °C.

For the compound `CN(CCCCNC(=O)c1cc2ccccc2s1)C1CCc2ncsc2C1` (stereo unspecified), the melting point was found to be 105 °C. `O=C(Nc1ccc(N2CCN(C(=O)Nc3ccc(OCCO)cc3Cl)CC2)cc1)Nc1ccccc1F` gave a melting point of 213 to 217 °C.

`O=c1ccc2ccc(CC3CO3)cc2o1` (stereo unspecified) gave a melting point of 110 to 112 °C. As for `CC(Cc1c[nH]c2ccccc12)(NC(=O)OC1C2CC3CC(C2)CC1C3)C(=O)NC1(C(=O)O)CCCCC1` (stereo unspecified), the melting point was in the range of 203 to 208 °C. Next, `CC(C)(C)OC(=O)NC(Cc1ccccc1)C(O)CNCC(O)C(CCc1ccccc1)NC(=O)OCc1ccccc1` (stereo unspecified): 150 to 151 °C.

Regarding `Cc1nc2cccc(S(=O)(=O)n3c(COC(C)C(=O)O)cc4nc(Cl)ccc43)c2s1` (stereo unspecified), the melting point lay within 203 to 205 °C. The figure for `CCOc1nnc(COc2ccc(Oc3cccc(Cl)n3)cc2)s1` is 92 to 94 °C. For `COc1ccc([C@@H]2O[C@@H](CC(=O)O)C(=O)N(CC(C)(C)C)c3ccc(Cl)cc32)c(OC)c1`, the melting point was in the range of 233 to 234 °C. Compound `CCOC(=O)/C=C/c1oc2cccc(O)c2c1C` registered a melting point of 180 to 182 °C. The compound `COCC(=O)Nc1cccc2c1C1(COc3cc4c(cc31)OCCO4)C(=O)N2C` (stereo unspecified) gave a melting point of 237 to 239 °C. The figure for `O=[N+]([O-])C1([N+](=O)[O-])COC1` is 70 to 71 °C; for `N#Cc1cccc2c1CCCC2=O` it is above 230 °C. In the case of `CC(C)(C)OC(=O)N1CC=C(c2ccc(N)c([N+](=O)[O-])c2)CC1`, the melting point was 111 to 112 °C. `CCCCCCc1cc2c(s1)NC(=O)CN=C2c1ccccc1Cl` had a melting point of 141 to 143 °C. As for `O=C(CC1CCC1)N[C@H]1CC[C@H](CCN2CCC(c3cccc4c3CCO4)CC2)CC1`, the melting point came out at 196 °C. Regarding `O=c1n(CCCF)nnn1-c1ccc([N+](=O)[O-])cc1F`, the melting point lay in the range of 86 to 89 °C. Compound `CC(C)C(=O)N(C(=O)N(C)C)c1snc(C(C)C)c1C#N` displayed a melting point of 127 to 129 °C.
